Laboratory results reported in patent US9730906B2, “α-derivatives of cis-monounsaturated fatty acids for use as medicines” (UNIVERSITAT DE LES ILLES BALEARS, priority 2008, dated 2017).

Tests used:
[1] = tested on: A549 cells of human lung adenocarcinoma; assay: Prevention of tumour development in nude mice injected with A549 cells; format: in vivo; conditions: 400 mg/kg per day oral, 2 weeks before and one month after A549 injection, compared with fatty acids not of Formula I, p<0.05
Source text: FIG. 2. Preventative effect of various fatty acids against tumour development. […] Animals received treatment before injection of tumour cells and the treatment was subsequently maintained. Animals of the control group were not treated and the volume of their tumours was taken as the reference value (100%).
To determine whether the fatty acids of the invention have applications in the prevention of the development of tumour processes, an animal cancer model was used. This model consisted of immune-deprived animals ([Crl:Nu(Ico)-Fox 1] nude mice in which non-microcytic human lung cancer cells were injected (5×10^6 A549 cells per animal). The control group (infected with cancer cells but untreated) started to develop tumours that were visible after a few days. The sizes of the tumours were measured for the first time at 10 days after implanting the tumour and measurements continued for up to 31 days after the implantation with a digital calliper. The volume of the tumours was calculated with the following equation: v=w^2×l/2 where v is the volume of the tumour, w is its width and l is the length. Preventative treatments against development of the cancer were applied. To carry out these treatments, 400 mg/kg were administered per day for 2 weeks before the injection of tumour cells. This treatment was continued for one month after the implantation of the tumour cells and the volume of the tumours in the animals was measured. Each experimental group was composed of 8 animals. Oral administration of α-derivatives of cis-monounsaturated fatty acids prevented cancer development (A549 cells of human lung adenocarcinoma) (FIG. 2). […] Therefore it was concluded that the introduction of a double bond in the cis configuration in the structure of the fatty acid is a critical factor in the prevention and treatment by fatty acids of cancer development.

[2] = target: T1, cyclooxygenases-1 (COX-1) (Homo sapiens, UniProt P23219); assay: COX-1 activity in U937 differentiated monocytes (Cayman COX-1 inhibitor screening system); format: cell-based; conditions: 250 μM, 6 hours; compared with fatty acids not of Formula I, p<0.05
T1 construct: endogenous in cells; host or cells: U937 differentiated monocytes
T1 sequence (P23219 24-599): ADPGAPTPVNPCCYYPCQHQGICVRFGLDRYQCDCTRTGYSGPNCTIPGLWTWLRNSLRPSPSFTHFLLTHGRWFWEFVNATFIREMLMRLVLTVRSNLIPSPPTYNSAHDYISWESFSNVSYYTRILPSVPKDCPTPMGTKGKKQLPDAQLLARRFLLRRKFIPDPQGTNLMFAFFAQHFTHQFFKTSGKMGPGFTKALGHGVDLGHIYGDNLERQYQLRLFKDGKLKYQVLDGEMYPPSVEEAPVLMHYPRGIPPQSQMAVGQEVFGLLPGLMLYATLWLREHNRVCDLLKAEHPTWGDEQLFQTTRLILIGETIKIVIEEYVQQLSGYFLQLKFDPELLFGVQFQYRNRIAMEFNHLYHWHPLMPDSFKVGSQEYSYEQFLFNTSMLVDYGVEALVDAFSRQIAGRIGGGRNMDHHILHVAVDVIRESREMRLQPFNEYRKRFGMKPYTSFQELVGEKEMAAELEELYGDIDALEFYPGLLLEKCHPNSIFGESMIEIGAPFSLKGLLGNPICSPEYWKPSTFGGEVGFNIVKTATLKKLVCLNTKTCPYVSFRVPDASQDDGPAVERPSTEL
Experimental: FIG. 19A. Effect of various fatty acids in the inhibition of the activity of cyclooxygenases-1 (COX-1) (Cayman COX-1 inhibitor screening system). […] Cell cultures (U937 differentiated monocytes) were treated with the fatty acids of the invention (250 μM, 6 hours).
(§1) In an additional study on the release of various proinflammatory cytokines (IL-1b, IL-6, IL-8, IL-10) and TNF-α in U937 monocytes stimulated with bacterial lipopolysaccharide (LPS), a marked reduction in the levels of these molecules was observed after treatments with OHHD at a concentration of 250 μM and 72 h incubation (Table 4). The effect of the α-derivatives of cis-monounsaturated fatty acids (250 μM, 6 h) on the activity and expression of the COX-1 and COX-2 cyclooxygenases was investigated in the same system.

cyclooxygenase-2 (COX-2) = assay: Cellular concentration of COX-2 in U937 differentiated monocytes (immunoblot); format: cell-based, human; conditions: 250 μM, 6 hours; compared with fatty acids not of Formula I, p<0.05
Experimental: FIG. 19B. Effect of various fatty acids in the inhibition (concentration of protein) of cyclooxygenase-2 (immunoblot of COX-2). […] Cell cultures (U937 differentiated monocytes) were treated with the fatty acids of the invention (250 μM, 6 hours).
as §1

[3] = Rat obesity induced by cafeteria diet, preventative pre-treatment (Table 3); format: in vivo, Wistar Kyoto rats; conditions: 300 mg/kg oral, after two weeks on cafeteria diet; obese control 308 ± 17, lean control 280 ± 16; * lower than obese controls, ‡ indistinguishable
Method in brief: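 Groups of 6 female Wistar Kyoto rats (250-300 g) received oral pre-treatment with 300 mg/kg fatty acid or vehicle during 2 weeks on standard diet. Dosing continued for two further weeks on cafeteria diet, with lean and obese vehicle controls. Body-weight gain was the read-out.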

[4] = tested on: SF767 human brain cancer cells; assay: Tumour volume in nude mice infected with SF767 human brain cancer cells; format: in vivo; conditions: 600 mg/kg daily for 50 days; for volume of tumours (percent compared to control): p<0.001 vs control
Experimental: FIG. 6A. Effect of different salts of OHOD on human lung cancer in an animal cancer model. The volume of tumours in nude mice infected with SF767 human brain cancer cells (expressed as a percent compared to control) receiving various treatments. The animals received a vehicle (water: Control), 600 mg/kg of OHOD in the form of free fatty acid (OHOD), 600 mg/kg of sodium salt of OHOD (Na-OHOD) or 600 mg/kg of ammonium salt of OHOD (NH3OHOD) daily for 50 days.
FIG. 6B. Effect of different salts of OHOD on human lung cancer in an animal cancer model. The effect of different doses of sodium salt of OHOD (Na-OHOD) are shown on tumour volumes in mice infected with SF767 cells and treated with vehicle (control, 0 mg/kg), 100 mg/kg (100), 200 mg/kg (200), 400 mg/kg (400) and 600 mg/kg (600) for 50 days. * p<0.05; ***p<0.001.
One important characteristic of the molecules covered in the present invention is that they can form various types of salts. FIG. 6A and Table 5 show the therapeutic effects of various α-derivatives of cis-monounsaturated fatty acids and their salts. […] The specificity of this effect is determined by the relation between the dose and the effect these molecules have on the volume of human tumours implanted in animals (FIG. 6B).

[5] = tested on: Human glioma cells (U118); assay: Differentiation of human glioma cells (U118); format: cell-based; conditions: 200 μM
Source text: FIG. 16B. Human glioma cells (U118) are astrocytes of the central nervous system ([…]) that have lost their differentiation (Control). […] This differentiating activity can be involved in neuroregenerative processes necessary for recovery of motor activity.
This effect may be due to the induction of neural projection sprouting necessary to re-establish connections lost by the nerve fibre lesion.

Compound | tumour volume (prevention of tumour development) [1] | inhibition of COX-1 activity (% of control) [2] | cellular concentration of COX-2 (% of control) (cyclooxygenase-2 (COX-2)) | Final weight [3] | volume of tumours (percent compared to control) [4] | potency on tumour volume compared with the free fatty acid OHOD ([4]; p<0.05) | differentiation of glioma cells [5]
CCCCCCCC/C=C\CCCCCCC(OC)C(=O)O (stereo not drawn) [MOOD, α-Methoxy-cis-Δ9-octadecenoic] | more significant effect | more significant effect | more significant effect | 263 ± 22* g | – | – | –
CCCCCCCC/C=C\CCCCCCC(O)C(=O)[O-].[Na+] (stereo not drawn) [Na-OHOD] | – | – | – | – | significant reductions in the size of tumours | significantly more potent | differentiate and develop towards the glial phenotype
CCCCCCCC/C=C\CCCCCCC(O)C(=O)O (stereo not drawn) [OHOD, α-Hydroxy-cis-Δ9-octadecenoic] | more significant effect | more significant effect | more significant effect | 284 ± 13* g | significant reductions in the size of tumours | – | –
